{"source": "ChEMBL document CHEMBL5233281", "about": "“Design, synthesis and biological evaluation of novel 1,3,4,9-tetrahydropyrano[3,4-b]indoles as potential treatment of triple negative breast cancer by suppressing PI3K/AKT/mTOR pathway” (Bioorg Med Chem, 2021)", "key": {"MDA-MB-231 [1]": {"system": "MDA-MB-231", "assay": "Induction of apoptosis in human MDA-MB-231 cells assessed as increase in ratio of Bax to Bcl-2 protein expression measured after 48 hrs by western blot analysis", "type": "functional, cell-based", "conditions": "dose 1-4 µM"}, "MDA-MB-231 [2]": {"system": "MDA-MB-231", "assay": "Downregulation of Akt protein expression in human MDA-MB-231 cells incubated for 48 hrs by western blot analysis", "type": "functional, cell-based", "conditions": "dose 1-4 µM"}, "MDA-MB-231 [3]": {"system": "MDA-MB-231", "assay": "Induction of apoptosis in human MDA-MB-231 cells assessed as increase in apoptotic cells at 2 uM incubated for 48 hrs by AnnexinV-FITC/PI staining based flow cytometry (reference value: 5.24%)", "type": "functional"}, "MDA-MB-231 [4]": {"system": "MDA-MB-231", "assay": "Induction of apoptosis in human MDA-MB-231 cells assessed as decrease in Bcl-2 protein expression measured after 48 hrs by western blot analysis", "type": "functional, cell-based", "conditions": "dose 1-4 µM"}, "MDA-MB-231 [5]": {"system": "MDA-MB-231", "assay": "Induction of cell cycle arrest in human MDA-MB-231 cells assessed as upregulation of p21 protein expression at 1 to 4 uM incubated for 48 hrs by western blot analysis", "type": "functional, cell-based", "conditions": "dose 1-4 µM"}, "[6]": {"assay": "Selectivity index, ratio of IC50 for antiproliferative activity against human MCF-10A cells to IC50 for antiproliferative activity against human MDA-MB-231 cells", "type": "toxicity, cell-based", "conditions": "MCF-10A cells and MDA-MB-231 cells, read-out: Ratio IC50"}, "MDA-MB-231 [7]": {"system": "MDA-MB-231", "assay": "Antiproliferative activity against human MDA-MB-231 cells assessed as inhibition of cell growth at 1 to 4 uM by CCK8 assay", "type": "functional, cell-based", "conditions": "dose 1-4 µM, time 24-96 hrs, TDE = time-dependent effect"}, "[8]": {"assay": "Inhibition of PI3K/Akt/mTOR signaling in human MDA-MB-231 cells assessed as reduction in Akt phosphorylation at Thr308 residue at 2 uM incubated for 72 hrs in presence of IGF-1 by western blot analysis", "type": "cell-based"}, "[9]": {"assay": "Inhibition of PI3K/Akt/mTOR signaling in human MDA-MB-231 cells assessed as reduction in mTOR phosphorylation at Ser2481 residue incubated for 48 hrs by western blot analysis", "type": "cell-based", "conditions": "dose 1-4 µM"}, "MDA-MB-231 [10]": {"system": "MDA-MB-231", "assay": "Antiproliferative activity against human MDA-MB-231 cells assessed as inhibition of cell growth incubated for 72 hrs by CCK8 assay", "type": "functional, cell-based", "conditions": "MDA-MB-231, 72 h"}, "MDA-MB-231 [11]": {"system": "MDA-MB-231", "assay": "Induction of apoptosis in human MDA-MB-231 cells assessed as increase in apoptotic cells at 2 uM incubated for 72 hrs in presence of IGF-1 by AnnexinV-FITC/PI staining based flow cytometry", "type": "functional"}, "MDA-MB-231 [12]": {"system": "MDA-MB-231", "assay": "Downregulation of mTOR protein expression in human MDA-MB-231 cells at 2 uM incubated for 72 hrs in presence of IGF-1 by western blot analysis", "type": "functional, cell-based"}, "MDA-MB-231 [13]": {"system": "MDA-MB-231", "assay": "Induction of cell cycle arrest in human MDA-MB-231 cells assessed as downregulation of CDK4 protein expression at 1 to 4 uM incubated for 48 hrs by western blot analysis", "type": "functional, cell-based", "conditions": "dose 1-4 µM"}}, "note": "Active and inactive are the calls of the source. The rule behind the calls is not given here."}
{"compound": "Fc1cc(F)cc(C2OCCc3c2[nH]c2ccccc32)c1", "note": "(stereo not drawn)", "values": [{"measurement": "Activity", "setting": "MDA-MB-231 [1]", "result": "Dose-Dependent Effect"}, {"measurement": "inhibition", "setting": "MDA-MB-231 [2]", "result": "Dose-Dependent Effect"}, {"measurement": "Activity", "setting": "MDA-MB-231 [3]", "result": 22.17, "unit": "%"}, {"measurement": "Activity", "setting": "MDA-MB-231 [4]", "result": "Dose-Dependent Effect"}, {"measurement": "Activity", "setting": "MDA-MB-231 [5]", "result": "Active"}, {"measurement": "selectivity ratio", "setting": "[6]", "result": 10.8}, {"measurement": "Activity", "setting": "MDA-MB-231 [7]", "result": "Tde"}, {"measurement": "inhibition", "setting": "[8]", "result": "inactive"}, {"measurement": "inhibition", "setting": "[9]", "result": "Dose-Dependent Effect"}, {"measurement": "IC50", "setting": "MDA-MB-231 [10]", "result": 2.29, "unit": "µM"}, {"measurement": "Activity", "setting": "MDA-MB-231 [11]", "result": 18.5, "unit": "%"}, {"measurement": "inhibition", "setting": "MDA-MB-231 [12]", "result": "inactive"}, {"measurement": "Activity", "setting": "MDA-MB-231 [13]", "result": "Active"}]}
